Results on five molecules are retold here after article PMC7995636 (Bioorganic & medicinal chemistry, 2021).

For data set [1] the following is noted: higher in brain; cited from earlier work.
Data set [2] relates to breast cancer resistance protein (BCRP1). The settings on record: cited from earlier work.
The next data set relates to P-glycoprotein (Pgp). To be noted: cited from earlier work.
The target in a further data set is Bovine brain tubulin (Bos taurus, UniProt Q6B856). Put plainly: Inhibition of tubulin assembly. Format: biochemical.
The next data set concerns the target PDGFR-β (Homo sapiens, UniProt P09619). The data set is described as follows: Phosphotyrosine ELISA, PDGFR-β kinase inhibition. Format: cell-based. The settings on record: compared to 1. (In an ELISA, binding on a coated surface is turned into a signal by an enzyme label.)
In a further data set the test system is HeLa WT-βIII cells. Put plainly: SRB assay, HeLa WT-βIII. The class given is cell-based. The settings on record: Homo sapiens, read-out: IC50 ± SD in WT βIII. (In general: Sulforhodamine B stains cellular protein and so reports cell mass.)
A further data set relates to HeLa cells. Put plainly: SRB assay, HeLa. The class given is cell-based. To be noted: Homo sapiens, read-out: IC50 ± SD in HeLa.

Sequence of Bovine brain tubulin (Q6B856 whole entry): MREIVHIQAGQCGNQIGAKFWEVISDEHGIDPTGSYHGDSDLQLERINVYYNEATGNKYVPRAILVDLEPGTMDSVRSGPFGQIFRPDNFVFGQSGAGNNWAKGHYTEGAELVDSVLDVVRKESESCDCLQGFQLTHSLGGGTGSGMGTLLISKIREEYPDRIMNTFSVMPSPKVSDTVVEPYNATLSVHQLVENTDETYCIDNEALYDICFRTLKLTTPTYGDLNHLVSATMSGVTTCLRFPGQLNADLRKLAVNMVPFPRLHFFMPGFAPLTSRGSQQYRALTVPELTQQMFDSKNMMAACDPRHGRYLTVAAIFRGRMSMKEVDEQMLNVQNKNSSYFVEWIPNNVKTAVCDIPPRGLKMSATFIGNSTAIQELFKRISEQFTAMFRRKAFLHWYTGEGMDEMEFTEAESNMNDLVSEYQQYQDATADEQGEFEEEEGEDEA
Sequence of Bovine brain tubulin (P81947 whole entry partner): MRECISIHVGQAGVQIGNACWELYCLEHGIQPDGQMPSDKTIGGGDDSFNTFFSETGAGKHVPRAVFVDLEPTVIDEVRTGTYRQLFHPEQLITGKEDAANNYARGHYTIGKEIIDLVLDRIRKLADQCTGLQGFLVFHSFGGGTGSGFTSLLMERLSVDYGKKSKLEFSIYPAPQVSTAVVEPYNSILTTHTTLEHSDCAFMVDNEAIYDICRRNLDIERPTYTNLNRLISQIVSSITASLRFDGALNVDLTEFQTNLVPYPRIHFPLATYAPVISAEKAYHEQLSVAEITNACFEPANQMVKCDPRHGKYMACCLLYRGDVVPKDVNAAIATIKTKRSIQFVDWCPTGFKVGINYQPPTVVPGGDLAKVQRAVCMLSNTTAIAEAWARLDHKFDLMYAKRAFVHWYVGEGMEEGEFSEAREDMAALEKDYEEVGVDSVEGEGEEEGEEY
Sequence of PDGFR-β (P09619 33-1106): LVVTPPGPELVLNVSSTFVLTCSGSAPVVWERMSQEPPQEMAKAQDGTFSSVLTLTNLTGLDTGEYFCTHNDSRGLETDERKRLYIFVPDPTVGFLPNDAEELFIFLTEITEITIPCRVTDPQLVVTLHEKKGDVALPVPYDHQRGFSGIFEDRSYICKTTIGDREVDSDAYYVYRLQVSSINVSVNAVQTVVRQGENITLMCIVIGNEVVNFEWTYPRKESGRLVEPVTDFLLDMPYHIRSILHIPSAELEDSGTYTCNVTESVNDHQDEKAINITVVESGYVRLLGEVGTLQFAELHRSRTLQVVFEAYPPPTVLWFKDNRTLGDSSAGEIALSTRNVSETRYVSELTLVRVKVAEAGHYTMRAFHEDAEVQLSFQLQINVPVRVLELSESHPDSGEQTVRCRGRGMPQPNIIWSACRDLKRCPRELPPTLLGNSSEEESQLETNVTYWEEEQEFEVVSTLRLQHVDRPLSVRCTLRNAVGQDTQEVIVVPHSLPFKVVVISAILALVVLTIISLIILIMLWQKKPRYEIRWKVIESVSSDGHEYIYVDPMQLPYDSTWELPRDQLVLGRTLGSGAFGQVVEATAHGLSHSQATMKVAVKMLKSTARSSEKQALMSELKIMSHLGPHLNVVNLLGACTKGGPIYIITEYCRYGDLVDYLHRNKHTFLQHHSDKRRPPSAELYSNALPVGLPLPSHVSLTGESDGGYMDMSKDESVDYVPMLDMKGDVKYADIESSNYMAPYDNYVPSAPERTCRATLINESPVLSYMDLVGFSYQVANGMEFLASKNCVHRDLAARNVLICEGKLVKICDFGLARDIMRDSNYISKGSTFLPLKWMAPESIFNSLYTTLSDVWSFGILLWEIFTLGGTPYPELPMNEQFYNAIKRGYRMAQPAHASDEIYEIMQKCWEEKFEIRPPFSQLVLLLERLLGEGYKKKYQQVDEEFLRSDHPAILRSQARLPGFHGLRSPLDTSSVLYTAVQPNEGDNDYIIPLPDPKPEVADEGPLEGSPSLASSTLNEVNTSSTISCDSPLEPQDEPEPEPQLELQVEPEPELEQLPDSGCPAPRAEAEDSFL

Take `COc1ccc(N(C)c2nc(C)nc3ccccc23)cc1` [Compound 1, N-(4-Methoxyphenyl)-N,2-dimethylquinazolin-4-amine]: in data set [1], the “concentrations in the brain compared to the plasma” value was 30 fold. The “substrate for breast cancer resistance protein (BCRP1)” value in data set [2] is given as “not a substrate”. Besides, in the data set with P-glycoprotein (Pgp), the “substrate for P-glycoprotein (Pgp)” value was “not a substrate”.

On to `CSc1ccc(N(C)c2nc(C)nc3ccccc23)cc1` [Compound 3, N,2-Dimethyl-N-(4-(methylthio)phenyl)quinazolin-4-amine], for which, on Bovine brain tubulin, it took 480 ± 70 nM to reach half-maximal inhibition (IC50).

Consider `COc1cccc2cc(N(C)c3nc(C)nc4ccccc34)ccc12` [Compound 4, N-(5-Methoxynaphthalen-2-yl)-N,2-dimethylquinazolin-4-amine], for which the “fold loss of potency with PDGFR-β” value on PDGFR-β is given as ~ 5 fold. For the same molecule, the IC50 at Bovine brain tubulin was 640 ± 10 nM.

The molecule `COc1ccc(N(C)c2nc(Cl)nc3ccccc23)cc1` [Compound 8, 2-Chloro-N-(4-methoxyphenyl)-N-methylquinazolin-4-amine] yielded a concentration for half-maximal inhibition (IC50) against Bovine brain tubulin of 470 ± 20 nM.

Regarding `CC(=O)O[C@H]1C(=O)[C@@]2(C)[C@H]([C@H](OC(=O)c3ccccc3)[C@]3(O)C[C@H](OC(=O)[C@H](O)[C@@H](NC(=O)c4ccccc4)c4ccccc4)C(C)=C1C3(C)C)[C@]1(OC(C)=O)CO[C@@H]1C[C@@H]2O` [Paclitaxel], the IC50 is 24 ± 0.2 nM in the data set on HeLa WT-βIII cells and 2.8 ± 0.4 nM in the data set with HeLa cells.

For orientation: IC50 means the concentration that inhibits the measured activity by half.
